Measurements reported in patent US9702005B2, “Hepatitis B viral variants with reduced susceptibility to nucleoside analogs and uses thereof” (priority 2002, dated 2017).

Experiments:
[1] = system: HBV; assay: Hepatitis B viral DNA levels in patients on treatment (capture hybridization assay); type: in vivo, human; conditions: for HBV DNA copies/ml: open label ADV
Protocol: (§1) Patient A, a person was initially referred for evaluation of thrombocytopenia and hepatosplenomegaly. At this time the patient had abnormal LFT's (ALT 67 U/L, normal <55) and the HBV DNA was 61 pg/ml (231 days prior to the start of treatment). The patient was HBsAg and HBeAg positive. The ALT's fluctuated between 50-70 IU/L from (−231 to −35 days pretreatment). ADV was commenced on Day 0 in a clinical trial on 30 mg/day. HBV DNA levels were reduced with ADV treatment. The ADV treatment was reduced to 10 mg/day (144 days post-treatment). There was a problem with the randomization treatment protocol. The patient was on antiviral treatment for 1 month only during the second year of the treatment period. The study was completed on Day 679 post ADV treatment. The patient was not on ADV treatment until the open label ADV was recommenced on Day 875 from the start of the initial ADV treatment. This second period of ADV treatment was given for 108 days (day 983 post initial ADV treatment). […] At Day 983, ADV treatment was stopped and the patient was treated with LMV.
(§2) Patient B is a liver transplant patient. The patient has been on both sequential and combination antiviral therapy including HBIG, FCV+HBIG, LMV+HBIG, LMV, LMV+GCV, LMV+FCV+GCV, LMV+GCV and finally LMV+ADV. The patient has been on long term ADV+LMV treatment for over 795 days. Patient C, is a person. Prior to ADV treatment the patient had abnormal LFT's (ALT 240 IU/L, normal <55) and the HBV DNA was 2×10^7 copies/ml. ADV was commenced on Day 0 in a clinical trial on 10 mg/day for two years. The average ALT during the two year clinical trial period ws 114 IU/L. However, the ALT was rising and at 630 days after the start of ADV treatment the ALT remained high 407 IU/L. Open label ADV was commenced on Day 668 from the start of the initial ADV treatment. This second period of ADV treatment was given for […]. […] The peak ALT during open label ADV treatment was 517 IU/L (Day 738). The next day (Day 739), ADV treatment was stopped and the patient was treated with LMV.
Hepatitis B surface antigen (HBsAg), hepatitis B e antigen (HBeAg), anti-HBe and hepatitis B core antigen (HBcAg) specific IgG and IgM were measured using commercially available immunoassays (Abbott Laboratories, North Chicago, Ill., USA). Hepatitis B viral DNA levels were measured using a capture hybridization assay according to the manufacturer's directions (Digene Hybrid Capture II, Digene Diagnostics Inc., Beltsville, Md.). The manufacturers stated cut-off for detecting HBV viremia in clinical specimens was 0.7×10^6 copies/ml or 2.5 pg/ml, [Hendricks et al., Am J Clin Pathol 104: 537-46, 1995]. HBV DNA levels can also be quantitated using other commercial kits such as Cobas amplification HBV monitor kit (Roche).

[2] = system: HBV rt A181T/N236T/N238D; assay: In vitro drug susceptibility, recombinant HBV/baculovirus in HepG2 cells, rt A181T/N236T/N238D; type: cell-based, hepatitis B virus
Protocol: (§3) The sensitivity/resistance profile of HBV mutants to ADV was examined in vitro using recombinant HBV/baculovirus. The procedure for analyzing the resistance profile is outlined in the following Examples 12-20.
(§4) Sf21 insect cells were maintained in supplemented Grace's insect medium further supplemented with 10% v/v heat-inactivated fetal bovine serum (Gibco BRL, Gaithersburg, Md.) in humidified incubator at 28° C. with CO2. HepG2 cells were maintained in minimal essential medium supplemented with 10% v/v heat-inactivated fetal bovine serum (MEM-FBS). HepG2 cells were grown in humidified 37° C. incubators at 5% v/v CO2.
(§5) The recombinant HBV/baculovirus system used for antiviral testing has been previously described (Delaney et al., Antimicrob Agents Chemother 45(6): 17054013, 2001). In brief, the recombinant transfer vector was created by excising a fragment containing the 1.3X HBV genome construct and cloning it into the multiple cloning region of a baculovirus vector pBlueBac4.5 (Invitrogen, Carlsbad, Calif.). Point mutations were created by site directed mutagenesis using the commercial kits according to the manufacturer's specifications (QuikChange, Stratagene). HBV/baculovirus recombinant clones encoding the reverse transcriptase mutations rtA181T/N236T/N238D and […] in combination with the precore mutation at G1896A (pcW28 stop) or wild-type with respect to codon pcW28, were prepared by site-directed mutagenesis. The nucleotide sequence of the plasmid and the point mutations generated by site directed mutagenesis were confirmed by sequencing using the ABI Prism Big Dye Terminator Cycle Sequencing Ready Reaction Kit according to the manufacturer's specifications (Perkin Elmer, Cetus Norwalk, Conn.).
Purified recombinant transfer vector and linear AcMNPV baculovirus DNA were co-transfected into Sf21 cells using the BacNBlue transfection kit from Invitrogen (Carlsbad, Calif.); recombinant viruses were isolated by plaque assay according to the manufacturer's instructions. A series of recombinant viruses were amplified from isolated plaques by infecting 100-mm dishes of Sf21 cells. Viral DNA was extracted from amplified viruses using standard procedures. Purified viral DNA was digested with restriction enzymes and then fractionated by electrophoresis in a 1% […] agarose gel. Southern blotting was performed to determine which virus isolates contained the intact 1.3 HBV construct. A Boehringer Mannheim Random Prime DNA Labeling kit (Indianapolis, Ind.) was used to generate [P^32]-radiolabeled probes. A full-length double-stranded HBV genome was used as a template for all radiolabeled probes. […]

[3] = ALT in patients on treatment; type: in vivo, human
Protocol: as §1, §2

[4] = system: HBV; conditions: phase II studies, 30 mg daily dose, over 12 weeks; cited from earlier work
[5] = system: HBV rt N236T/N238D; assay: In vitro drug susceptibility, recombinant HBV/baculovirus in HepG2 cells, rt N236T/N238D; type: cell-based, hepatitis B virus
Protocol: as §3, §4
(§6) The recombinant HBV/baculovirus system used for antiviral testing has been previously described (Delaney et al., Antimicrob Agents Chemother 45(6): 17054013, 2001). In brief, the recombinant transfer vector was created by excising a fragment containing the 1.3X HBV genome construct and cloning it into the multiple cloning region of a baculovirus vector pBlueBac4.5 (Invitrogen, Carlsbad, Calif.). […] The nucleotide sequence of the plasmid and the point mutations generated by site directed mutagenesis were confirmed by sequencing using the ABI Prism Big Dye Terminator Cycle Sequencing Ready Reaction Kit according to the manufacturer's specifications (Perkin Elmer, Cetus Norwalk, Conn.). […]

[6] = system: Wild-type (pPC) HBV reference laboratory strain (genotype D subtype ayw); assay: In vitro drug susceptibility, recombinant HBV/baculovirus in HepG2 cells, wild-type; type: cell-based, hepatitis B virus
Protocol: as §3, §4, §5
Purified recombinant transfer vector and linear AcMNPV baculovirus DNA were co-transfected into Sf21 cells using the BacNBlue transfection kit from Invitrogen (Carlsbad, Calif.); recombinant viruses were isolated by plaque assay according to the manufacturer's instructions. […]

[7] = system: HBV rt L180M/M204V; assay: In vitro drug susceptibility, recombinant HBV/baculovirus in HepG2 cells, rt L180M/M204V; type: cell-based, hepatitis B virus
Protocol: as §3, §4, §6

## CC(C)(C)C(=O)OCOP(=O)(COCCn1cnc2c(N)ncnc21)OCOC(=O)C(C)(C)C [ADV, adefovir dipivoxil]
[1]; Patient A, ADV commenced Day 0, 30 mg/day
  HBV DNA levels: reduced
[1]; Patient A, day 904 post-ADV treatment
  HBV DNA copies/ml: 1.55 × 10^6 copies/ml
[1]; Patient A, day 932
  HBV DNA copies/ml: 2.97 × 10^6 copies/ml
[1]; Patient A, day 959
  HBV DNA copies/ml: 1.76 × 10^6 copies/ml
[1]; Patient A, day 983 (end ADV)
  HBV DNA copies/ml: 1.64 × 10^6 copies/ml
[1]; Patient C, day 701
  HBV DNA copies/ml: 1.5 × 10^7 copies/ml
[1]; Patient C, day 730
  HBV DNA copies/ml: 3.7 × 10^6 copies/ml
[2]; rtA181T also present (triple mutant), readout not stated
  fold increase in IC50: five
[3]; Patient A, open label ADV, day 983 (end ADV)
  ALT: 65 IU/L
[3]; Patient C, ADV 10 mg/day clinical trial, day 29
  ALT: 160 IU/L
[3]; Patient C, ADV 10 mg/day clinical trial, day 630
  ALT: 407 IU/L
[3]; Patient C, open label ADV, day 701
  ALT: 226 IU/L
[3]; Patient C, open label ADV, day 730
  ALT: 361 IU/L
[3]; Patient C, open label ADV, day 738
  ALT (peak during open label ADV): 517 IU/L
[3]; Patient C, two year clinical trial period, ADV 10 mg/day
  average ALT: 114 IU/L
[4]
  mean decrease in viremia: 4 log10
[5]; rt N236T/N238D mutation, readout not stated
  fold increase in IC50: twenty-three

## Nc1ncnc2c1ncn2CCOCP(=O)(O)O [Adefovir, 9-[phosphonyl-methoxyethyl]-adenine]
[2]; Real-time PCR, rt A181T/N236T/N238D
  In vitro Susceptibility IC50 (fold change from wild-type), Real-time PCR: 5.1 fold
[2]; rt A181T/N236T/N238D
  In vitro Susceptibility IC50 (fold change from wild-type), Southern Blot: 7.3 fold
[6]; Real-time PCR
  In vitro Susceptibility IC50 (fold change from wild-type), Real-time PCR: 1 fold
[6]
  In vitro Susceptibility IC50 (fold change from wild-type), Southern Blot: 1 fold
[5]; Real-time PCR, rt N236T/N238D
  In vitro Susceptibility IC50 (fold change from wild-type), Real-time PCR: 23 fold
[7]
  In vitro Susceptibility IC50 (fold change from wild-type), Southern Blot: 0.9 fold

## Nc1ccn([C@@H]2CS[C@H](CO)O2)c(=O)n1 [Lamivudine, (-)-β-2'-deoxy-3'-thiacytidine]
[2]; rt A181T/N236T/N238D
  In vitro Susceptibility IC50 (fold change from wild-type), Southern Blot: >100 fold
[3]; Patient B, day -8 (S6), pre-ADV on LMV
  ALT: 427 IU/L
[6]
  In vitro Susceptibility IC50 (fold change from wild-type), Southern Blot: 1 fold
[7]
  In vitro Susceptibility IC50 (fold change from wild-type), Southern Blot: >2500 fold
